We go through seven compounds from PubChem BioAssay AID504713 (Southern Research Specialized Biocontainment Screening …, 2011).

The structures appear in SMILES notation.

The test system of the assay is mammalian cell cytotoxicity, viability, CC50. Description: mammalian cell cytotoxicity, cytotoxicity control, set 3 (AID 504713).
As for `COc1ccc(Cl)cc1C(=O)Nc1nc2ccccc2[nH]1`, the CC50 is 60.5 µM.
Consider `COc1ccc2nc(NC(=O)COc3ccc(C)cc3)sc2c1`, for which the CC50 was 87.4 µM.
Next, `O=C(Nc1nc2ccccc2[nH]1)c1cc2cc(Br)ccc2o1`: 41.7 µM; `N/C(=N\c1nc2ccccc2o1)NC(=O)c1ccc(F)cc1`: 57.3 µM.
Next, `CCOc1ccc2c(c1)c(C(C)=O)c(C)n2-c1ccccc1Cl`: 85.7 µM; `CC(Oc1ccc(Cl)cc1)C(=O)Nc1nc2ccccc2s1` (configuration not stated): 92 µM; `CCOc1ccc2c(c1)c(C(C)=O)c(C)n2-c1ccccc1C`: 90.1 µM.
